Where two headings read alike, the source gives them in different places.
Columns and labels:
Details in all cases: 25° C.
[1] = test system: S. aureus
Experimental: (§1) Absorbent products, of 2 in.×2 in., weighing about 1 gram each, and being of identical construction except that 0%, 2%, 4%, 6%, 8%, 10% and 12% (per gram of product) of sodium bicarbonate was incorporated therein are used for this example. […] Two ml of sterile water was added to each product. Each product was then inoculated with 0.1 ml of one of a bacterium or fungus selected from S. aureus (6.9×10^5 CFU/ml), E. coli (5.4×10^5 CFU/ml), P. aeruginosa (6.9×10^5 CFU/ml), and C. albicans (5×10^5 CFU/ml). Each inoculated product was incubated at 25° C. and kept moist in a petri dish. Microbial numbers were determined on days 7 and 14 Microbial numbers were determined by removing the product from the petri dish and placed in a bag with 9 ml of neutralizer broth, mixed and plated on Leethan Agar. These plates were then incubated for 48-72 hours at 30° C. and colonies on the plates were counted.

[2] = test system: P. aeruginosa
Experimental: as §1

[3] = test system: C. albicans
Experimental: as §1

[4] = test system: E. coli
Experimental: as §1

[5] = Day 7, 2% sodium bicarbonate in absorbent product
[6] = Day 7, 4% sodium bicarbonate in absorbent product
[7] = Day 7, 6% sodium bicarbonate in absorbent product
[8] = Day 7, 8% sodium bicarbonate in absorbent product
[9] = Day 7, 10% sodium bicarbonate in absorbent product
[10] = Day 7, 12% sodium bicarbonate in absorbent product
[11] = Day 14, 2% sodium bicarbonate in absorbent product
[12] = Day 14, 4% sodium bicarbonate in absorbent product
[13] = Day 14, 6% sodium bicarbonate in absorbent product
[14] = Day 14, 8% sodium bicarbonate in absorbent product
[15] = Day 14, 10% sodium bicarbonate in absorbent product
[16] = Day 14, 12% sodium bicarbonate in absorbent product

Q: `O=C([O-])O.[Na+]` [Sodium Bicarbonate, sodium bicarbonate] was tested. Which “Colony Forming Units/ml S. aureus” value [1, 5] did it give?
A: <10 Colony Forming Units/ml

Q: And the “Colony Forming Units/ml S. aureus” value [1, 6]?
A: <10 Colony Forming Units/ml

Q: And the “Colony Forming Units/ml S. aureus” value [1, 7]?
A: <10 Colony Forming Units/ml

Q: And the “Colony Forming Units/ml S. aureus” value [1, 8]?
A: <10 Colony Forming Units/ml

Q: What about the “Colony Forming Units/ml S. aureus” value [1, 9] of the same compound?
A: 5 Colony Forming Units/ml

Q: What about the “Colony Forming Units/ml S. aureus” value [1, 10] of the same compound?
A: <10 Colony Forming Units/ml

Q: And the “Colony Forming Units/ml S. aureus” value [1, 11]?
A: <10 Colony Forming Units/ml

Q: What about the “Colony Forming Units/ml S. aureus” value [1, 12] of the same compound?
A: <10 Colony Forming Units/ml

Q: What about the “Colony Forming Units/ml S. aureus” value [1, 13] of the same compound?
A: <10 Colony Forming Units/ml

Q: What about the “Colony Forming Units/ml S. aureus” value [1, 14] of the same compound?
A: 10 Colony Forming Units/ml

Q: And the “Colony Forming Units/ml S. aureus” value [1, 15]?
A: <10 Colony Forming Units/ml

Q: What about the “Colony Forming Units/ml S. aureus” value [1, 16] of the same compound?
A: <10 Colony Forming Units/ml

Q: What about the “Colony Forming Units/ml P. aeruginosa” value [2, 5] of the same compound?
A: <10 Colony Forming Units/ml

Q: What about the “Colony Forming Units/ml P. aeruginosa” value [2, 6] of the same compound?
A: <10 Colony Forming Units/ml

Q: What about the “Colony Forming Units/ml P. aeruginosa” value [2, 7] of the same compound?
A: 50 Colony Forming Units/ml

Q: What about the “Colony Forming Units/ml P. aeruginosa” value [2, 8] of the same compound?
A: 150 Colony Forming Units/ml

Q: And the “Colony Forming Units/ml P. aeruginosa” value [2, 9]?
A: <10 Colony Forming Units/ml

Q: What about the “Colony Forming Units/ml P. aeruginosa” value [2, 10] of the same compound?
A: <10 Colony Forming Units/ml

Q: And the “Colony Forming Units/ml P. aeruginosa” value [2, 11]?
A: 15 Colony Forming Units/ml

Q: What about the “Colony Forming Units/ml P. aeruginosa” value [2, 12] of the same compound?
A: <10 Colony Forming Units/ml

Q: And the “Colony Forming Units/ml P. aeruginosa” value [2, 13]?
A: <10 Colony Forming Units/ml

Q: And the “Colony Forming Units/ml P. aeruginosa” value [2, 14]?
A: <10 Colony Forming Units/ml

Q: And the “Colony Forming Units/ml P. aeruginosa” value [2, 15]?
A: <10 Colony Forming Units/ml

Q: What about the “Colony Forming Units/ml P. aeruginosa” value [2, 16] of the same compound?
A: <10 Colony Forming Units/ml

Q: And the “Colony Forming Units/ml C. albicans” value [3, 5]?
A: 1,800 Colony Forming Units/ml

Q: And the “Colony Forming Units/ml C. albicans” value [3, 6]?
A: 5 Colony Forming Units/ml

Q: What about the “Colony Forming Units/ml C. albicans” value [3, 7] of the same compound?
A: <10 Colony Forming Units/ml

Q: What about the “Colony Forming Units/ml C. albicans” value [3, 8] of the same compound?
A: 70 Colony Forming Units/ml

Q: And the “Colony Forming Units/ml C. albicans” value [3, 9]?
A: <10 Colony Forming Units/ml

Q: And the “Colony Forming Units/ml C. albicans” value [3, 10]?
A: 30 Colony Forming Units/ml

Q: And the “Colony Forming Units/ml C. albicans” value [3, 11]?
A: 15 Colony Forming Units/ml

Q: And the “Colony Forming Units/ml C. albicans” value [3, 12]?
A: 450 Colony Forming Units/ml

Q: What about the “Colony Forming Units/ml C. albicans” value [3, 13] of the same compound?
A: <10 Colony Forming Units/ml

Q: What about the “Colony Forming Units/ml C. albicans” value [3, 14] of the same compound?
A: 3000 Colony Forming Units/ml

Q: And the “Colony Forming Units/ml C. albicans” value [3, 15]?
A: <10 Colony Forming Units/ml

Q: And the “Colony Forming Units/ml C. albicans” value [3, 16]?
A: <10 Colony Forming Units/ml

Q: What about the “Colony Forming Units/ml E. coli” value [4, 5] of the same compound?
A: <10 Colony Forming Units/ml

Q: What about the “Colony Forming Units/ml E. coli” value [4, 6] of the same compound?
A: <10 Colony Forming Units/ml

Q: And the “Colony Forming Units/ml E. coli” value [4, 7]?
A: <10 Colony Forming Units/ml

Q: What about the “Colony Forming Units/ml E. coli” value [4, 8] of the same compound?
A: <10 Colony Forming Units/ml

Q: What about the “Colony Forming Units/ml E. coli” value [4, 9] of the same compound?
A: <10 Colony Forming Units/ml

Q: What about the “Colony Forming Units/ml E. coli” value [4, 10] of the same compound?
A: <10 Colony Forming Units/ml

Q: And the “Colony Forming Units/ml E. coli” value [4, 11]?
A: <10 Colony Forming Units/ml

Q: And the “Colony Forming Units/ml E. coli” value [4, 12]?
A: <10 Colony Forming Units/ml

Q: What about the “Colony Forming Units/ml E. coli” value [4, 13] of the same compound?
A: <10 Colony Forming Units/ml

Q: What about the “Colony Forming Units/ml E. coli” value [4, 14] of the same compound?
A: <10 Colony Forming Units/ml

Q: And the “Colony Forming Units/ml E. coli” value [4, 15]?
A: <10 Colony Forming Units/ml

Q: And the “Colony Forming Units/ml E. coli” value [4, 16]?
A: <10 Colony Forming Units/ml

Reference: patent US20030215352A1, “Method of controlling microbial contamination” (Church & Dwight Co., Inc., priority 2002, published 2003)
